Assay results as given in patent US20080318974A1, “Compounds Useful for Inhibiting Chk1” (Icos Corporation, priority 2004, published 2008).

Test system: HT29 and Colo205 (human colon carcinoma) and H460 and Calu-6 (nonsmall cell carcinoma) xenograft tumors
Assay: Xenograft animal tumor models
Format: in vivo
Conditions: gemcitabine 160 mg/kg i.p., Balb/c (nu/nu) mice
From the text: To test the ability of the Chk1 inhibitors of the invention to enhance the killing of tumors by DNA damaging agents in mice, xenograft tumor models using colon tumor cell lines are established. 5-fluorouracil (5-FU) or gemcitabine can be used as DNA damaging agents. HT29 and Colo205 (human colon carcinoma) and H460 and Calu-6 (nonsmall cell carcinoma) cells can be used to propagate xenograft tumors in 6-8 week old female […] Balb/c (nu/nu) mice. Mice are maintained in a laminar airflow cabinet under pathogen-free conditions and fed sterile food and water ad libitum. Cell lines are grown to subconfluence in RPMI 1640 media supplemented with 10% FBS, 100 U/mL penicillin, 100 μg/mL streptomycin, and 1.5 mM L-glutamine in a 5% CO2 humidified environment. Single cell suspensions are prepared in CMF-PBS, and cell concentration adjusted to 1×10^8 cells/mL. Mice are inoculated subcutaneously (s.c.) on the right flank or right leg with a total of 1×10^7 cells (100 μL). Mice are randomized (5-15 mice/group) into four treatment groups and used when tumors reach a volume of […] (usually 7-11 days post-inoculation). Tumors are measured with […] calipers and tumor volumes are estimated using the empirically derived formula: tumor volume (cm^3)=tumor length (cm) x tumor width (cm)×tumor depth (cm)/3.3. […] Tumor size is monitored every other day for the duration of the experiment.

Nc1ccn([C@@H]2O[C@H](CO)[C@@H](O)C2(F)F)c(=O)n1 [gemcitabine, 2′,2′ difluoro-2′-deoxycytidine]
tumor growth: delay in tumor growth
